# Experimental data taken from patent US12427187B2, “Glucose-responsive insulin conjugates” (priority 2019, dated 2025).
# Target: T1, Human macrophage mannose receptor 1 (MRC1) (Homo sapiens, UniProt P22897)
# T1 sequence (P22897 19-1456): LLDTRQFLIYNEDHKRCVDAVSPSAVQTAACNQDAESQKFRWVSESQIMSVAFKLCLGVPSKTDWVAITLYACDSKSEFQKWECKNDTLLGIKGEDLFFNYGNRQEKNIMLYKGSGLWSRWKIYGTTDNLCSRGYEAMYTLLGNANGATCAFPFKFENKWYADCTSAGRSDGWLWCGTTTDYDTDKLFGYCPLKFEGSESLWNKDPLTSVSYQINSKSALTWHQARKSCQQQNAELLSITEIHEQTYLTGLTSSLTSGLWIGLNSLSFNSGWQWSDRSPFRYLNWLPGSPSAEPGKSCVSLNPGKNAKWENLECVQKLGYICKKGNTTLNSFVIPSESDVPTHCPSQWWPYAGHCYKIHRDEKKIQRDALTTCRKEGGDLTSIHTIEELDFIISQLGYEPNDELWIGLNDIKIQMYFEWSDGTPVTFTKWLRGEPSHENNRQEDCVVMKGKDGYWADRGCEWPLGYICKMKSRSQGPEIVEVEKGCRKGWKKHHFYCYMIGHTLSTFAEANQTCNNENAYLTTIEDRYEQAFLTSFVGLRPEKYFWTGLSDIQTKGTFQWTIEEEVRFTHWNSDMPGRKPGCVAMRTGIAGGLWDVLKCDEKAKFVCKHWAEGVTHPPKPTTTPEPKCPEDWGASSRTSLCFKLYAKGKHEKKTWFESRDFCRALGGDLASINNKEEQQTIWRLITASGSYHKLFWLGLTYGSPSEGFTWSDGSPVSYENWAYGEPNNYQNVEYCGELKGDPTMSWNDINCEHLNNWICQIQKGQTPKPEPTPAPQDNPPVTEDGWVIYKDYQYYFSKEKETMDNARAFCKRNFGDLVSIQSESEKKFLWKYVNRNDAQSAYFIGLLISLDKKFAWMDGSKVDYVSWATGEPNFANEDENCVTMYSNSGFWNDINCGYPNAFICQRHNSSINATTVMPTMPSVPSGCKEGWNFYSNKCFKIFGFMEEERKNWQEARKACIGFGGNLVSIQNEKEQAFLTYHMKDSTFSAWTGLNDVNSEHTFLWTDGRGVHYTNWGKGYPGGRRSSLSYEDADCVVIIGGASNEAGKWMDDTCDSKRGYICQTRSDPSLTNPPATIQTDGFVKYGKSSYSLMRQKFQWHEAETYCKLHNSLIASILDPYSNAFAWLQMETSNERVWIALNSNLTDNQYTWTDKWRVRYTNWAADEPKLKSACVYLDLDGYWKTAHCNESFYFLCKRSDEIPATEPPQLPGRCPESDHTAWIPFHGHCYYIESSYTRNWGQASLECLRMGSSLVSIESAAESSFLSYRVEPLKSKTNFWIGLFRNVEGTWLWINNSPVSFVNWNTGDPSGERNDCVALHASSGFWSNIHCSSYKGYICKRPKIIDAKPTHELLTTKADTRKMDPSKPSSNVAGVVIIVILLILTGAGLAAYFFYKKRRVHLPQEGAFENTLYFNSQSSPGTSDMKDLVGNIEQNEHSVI
# Assay: MRC1 competition binding assay with Eu-mannosylated-BSA
# Settings: Method E: 96-well plate; IP = inflection point; read-out: MRC1 Binding IP
# Experimental: The competition binding assay for Human macrophage mannose receptor 1 (MRC1) utilized a ligand, mannosylated-BSA labeled with the DELFIA Eu-N1-ITC reagent, as reported in the literature. Assay was performed either in a 96-well plate with 100 μL well volume (Method E) or in a 384-well plate with 25 μL well volume (Method F). […] The antibody was incubated in the plate for 1 hr at rt with shaking. The plate was washed with wash buffer 3-5 times followed by addition of MRC1 (2 ng/μl final concentration) in PBS containing 1% stabilizer BSA. The plate was incubated at rt with gentle shaking for 1 hr. The plate was washed three times with wash buffer. The IOC molecules in 12.5 μL (or 50 μL depending on plate format) buffer at appropriate concentrations were added followed by 12.5 μL (or 50 μL) Eu-mannosylated-BSA (0.1 nm final concentration) in 50 mM Tris, pH 7.5 containing 100 mM NaCl, 5 mM CaCl2, 1 mM MgCl2 and 0.2% stabilizer BSA. The plate was incubated for 2 hrs at rt with shaking followed by washing three times with wash buffer.
row,IC50,SMILES
1,3.32 nM,CC(=O)[C@H](CCCCN)NC(=O)CCCCC(=O)N[C@@H](CCC(=O)N[C@@H](CCC(=O)N[C@@H](CCC(=O)NCCCCCC(=O)NCCO[C@H]1O[C@H](CO[C@H]2O[C@H](CO)[C@@H](O)[C@H](O)[C@@H]2O)[C@@H](O)[C@H](O[C@H]2O[C@H](CO)[C@@H](O)[C@H](O)[C@@H]2O)[C@@H]1O)C(=O)NCCCCCC(=O)NCCO[C@H]1O[C@H](CO[C@H]2O[C@H](CO)[C@@H](O)[C@H](O)[C@@H]2O)[C@@H](O)[C@H](O[C@H]2O[C@H](CO)[C@@H](O)[C@H](O)[C@@H]2O)[C@@H]1O)C(=O)NCCCCCC(=O)NCCO[C@H]1O[C@H](CO[C@H]2O[C@H](CO)[C@@H](O)[C@H](O)[C@@H]2O)[C@@H](O)[C@H](O[C@H]2O[C@H](CO)[C@@H](O)[C@H](O)[C@@H]2O)[C@@H]1O)C(=O)NCCCCCC(=O)NCCO[C@H]1O[C@H](CO[C@H]2O[C@H](CO)[C@@H](O)[C@H](O)[C@@H]2O)[C@@H](O)[C@H](O[C@H]2O[C@H](CO)[C@@H](O)[C@H](O)[C@@H]2O)[C@@H]1O [IOC-24]
2,54.5 nM,CC(=O)[C@H](CCCCN)NC(=O)CCCCC(=O)N[C@@H](CCC(=O)NCCCCCC(=O)N(CCOC1O[C@H](CO)[C@@H](O)[C@H](O)[C@@H]1O)CCOC1O[C@H](CO)[C@@H](O)[C@H](O)[C@@H]1O)C(=O)N[C@@H](CCC(=O)NCCCCCC(=O)N(CCOC1O[C@H](CO)[C@@H](O)[C@H](O)[C@@H]1O)CCO[C@H]1O[C@H](CO)[C@@H](O)[C@H](O)[C@@H]1O)C(=O)N[C@@H](CC(C)C)C(=O)NCCCCCC(=O)N(CCOC1O[C@H](CO)[C@@H](O)[C@H](O)[C@@H]1O)CCOC1O[C@H](CO)[C@@H](O)[C@H](O)[C@@H]1O (stereo partly shown) [IOC-49]
3,2.38 nM,CC(=O)[C@H](CCCCN)NC(=O)CCCCCNC(=O)[C@H](CCCCNC(=O)CCCCCNC(=O)CN(CC(=O)NCCO[C@H]1O[C@H](CO)[C@@H](O)[C@H](O)[C@@H]1O)CC(=O)NCCO[C@H]1O[C@H](CO[C@H]2O[C@H](CO)[C@@H](O)[C@H](O)[C@@H]2O)[C@@H](O)[C@H](O[C@H]2O[C@H](CO)[C@@H](O)[C@H](O)[C@@H]2O)[C@@H]1O)NC(=O)[C@H](CCCCNC(=O)CCCCCNC(=O)CN(CC(=O)NCCO[C@H]1O[C@H](CO)[C@@H](O)[C@H](O)[C@@H]1O)CC(=O)NCCO[C@H]1O[C@H](CO[C@H]2O[C@H](CO)[C@@H](O)[C@H](O)[C@@H]2O)[C@@H](O)[C@H](O[C@H]2O[C@H](CO)[C@@H](O)[C@H](O)[C@@H]2O)[C@@H]1O)NC(=O)CCCCCNC(=O)CN(CC(=O)NCCO[C@H]1O[C@H](CO)[C@@H](O)[C@H](O)[C@@H]1O)CC(=O)NCCO[C@H]1O[C@H](CO[C@H]2O[C@H](CO)[C@@H](O)[C@H](O)[C@@H]2O)[C@@H](O)[C@H](O[C@H]2O[C@H](CO)[C@@H](O)[C@H](O)[C@@H]2O)[C@@H]1O [IOC-39]

# Same assay, conditions: Method F: 384-well plate; IP = inflection point; read-out: MRC1 Binding IP
row,SMILES,IC50
1,CC(=O)[C@H](CCCCN)NC(=O)CCCCC(=O)NCC(=O)N[C@@H](CCC(=O)N[C@@H](CCC(=O)NCCCCCC(=O)N(CCOC1O[C@H](CO)[C@@H](O)[C@H](O)[C@@H]1O)CCO[C@H]1O[C@H](CO)[C@@H](O)[C@H](O)[C@@H]1O)C(=O)NCCCCCC(=O)N(CCOC1O[C@H](CO)[C@@H](O)[C@H](O)[C@@H]1O)CCOC1O[C@H](CO)[C@@H](O)[C@H](O)[C@@H]1O)C(=O)NCCCCCC(=O)NCCO[C@H]1O[C@H](CO[C@H]2O[C@H](CO)[C@@H](O)[C@H](O)[C@@H]2O)[C@@H](O)[C@H](O[C@H]2O[C@H](CO)[C@@H](O)[C@H](O)[C@@H]2O)[C@@H]1O (stereo partly shown) [IOC-30],37 nM
2,CC(=O)[C@H](CCCCN)NC(=O)CCCCCNC(=O)[C@H](CCCCNC(=O)CCCCCNC(=O)CN(CC(=O)NCCO[C@H]1O[C@H](CO)[C@@H](O)[C@H](O)[C@@H]1O)CC(=O)NCCO[C@H]1O[C@H](CO)[C@@H](O)[C@H](O)[C@@H]1O)NC(=O)[C@H](CCCCNC(=O)CCCCCNC(=O)CN(CC(=O)NCCO[C@H]1O[C@H](CO)[C@@H](O)[C@H](O)[C@@H]1O)CC(=O)NCCO[C@H]1O[C@H](CO)[C@@H](O)[C@H](O)[C@@H]1O)NC(=O)CCCCCNC(=O)CN(CC(=O)NCCO[C@H]1O[C@H](CO)[C@@H](O)[C@H](O)[C@@H]1O)CC(=O)NCCO[C@H]1O[C@H](CO)[C@@H](O)[C@H](O)[C@@H]1O [IOC-40],24.7 nM
3,CC(=O)[C@H](CCCCN)NC(=O)CCCCCNC(=O)[C@H](CCCCNC(=O)CN(CC(=O)NCCO[C@@H]1O[C@@H](C)[C@@H](O)[C@@H](O)[C@@H]1O)CC(=O)NCCO[C@@H]1O[C@@H](C)[C@@H](O)[C@@H](O)[C@@H]1O)NC(=O)[C@H](CCCCNC(=O)CN(CC(=O)NCCO[C@@H]1O[C@@H](C)[C@@H](O)[C@@H](O)[C@@H]1O)CC(=O)NCCO[C@@H]1O[C@@H](C)[C@@H](O)[C@@H](O)[C@@H]1O)NC(=O)CN(CC(=O)NCCO[C@@H]1O[C@@H](C)[C@@H](O)[C@@H](O)[C@@H]1O)CC(=O)NCCO[C@@H]1O[C@@H](C)[C@@H](O)[C@@H](O)[C@@H]1O [IOC-47],10.6 nM

# Other lines, results leading:
row,IC50,SMILES
1,9.78 nM,CC(=O)[C@H](CCCCN)NC(=O)CCCCC(=O)NCC(=O)N[C@@H](CCC(=O)N[C@@H](CCC(=O)NCCCCCC(=O)N(CCOC1O[C@H](CO)[C@@H](O)[C@H](O)[C@@H]1O)CCOC1O[C@H](CO)[C@@H](O)[C@H](O)[C@@H]1O)C(=O)NCCCCCC(=O)N(CCOC1O[C@H](CO)[C@@H](O)[C@H](O)[C@@H]1O)CCOC1O[C@H](CO)[C@@H](O)[C@H](O)[C@@H]1O)C(=O)NCCCCCC(=O)NCCO[C@H]1O[C@H](CO[C@H]2O[C@H](CO)[C@@H](O)[C@H](O)[C@@H]2O)[C@@H](O)[C@H](O[C@H]2O[C@H](CO)[C@@H](O)[C@H](O)[C@@H]2O)[C@@H]1O (stereo partly shown) [IOC-38]
2,10 nM,CC(=O)[C@H](CCCCN)NC(=O)CCCCC(=O)NCC(=O)N[C@@H](CCC(=O)N[C@@H](CCC(=O)NCCCCCC(=O)N(CCOC1O[C@H](CO)[C@@H](O)[C@H](O)[C@@H]1O)CCO[C@H]1O[C@H](CO)[C@@H](O)[C@H](O)[C@@H]1O)C(=O)NCCCCCC(=O)N(CCOC1O[C@H](CO)[C@@H](O)[C@H](O)[C@@H]1O)CCOC1O[C@H](CO)[C@@H](O)[C@H](O)[C@@H]1O)C(=O)NCCCCCC(=O)NCCO[C@H]1O[C@H](CO[C@H]2O[C@H](CO)[C@@H](O)[C@H](O)[C@@H]2O)[C@@H](O)[C@H](O[C@H]2O[C@H](CO)[C@@H](O)[C@H](O)[C@@H]2O)[C@@H]1O (stereo partly shown) [IOC-33]
3,18.5 nM,CC(=O)[C@H](CCCCN)NC(=O)CCCCC(=O)NCC(=O)N[C@@H](CCC(=O)N[C@@H](CCC(=O)NCCCCCC(=O)N(CCOC1O[C@H](CO)[C@@H](O)[C@H](O)[C@@H]1O)CCO[C@H]1O[C@H](CO)[C@@H](O)[C@H](O)[C@@H]1O)C(=O)NCCCCCC(=O)N(CCOC1O[C@H](CO)[C@@H](O)[C@H](O)[C@@H]1O)CCOC1O[C@H](CO)[C@@H](O)[C@H](O)[C@@H]1O)C(=O)NCCCCCC(=O)NCCO[C@H]1O[C@H](CO[C@H]2O[C@H](CO)[C@@H](O)[C@H](O)[C@@H]2O)[C@@H](O)[C@H](O[C@H]2O[C@H](CO)[C@@H](O)[C@H](O)[C@@H]2O)[C@@H]1O (stereo partly shown) [IOC-29]
4,20.7 nM,CC(=O)[C@H](CCCCN)NC(=O)CCCCC(=O)NCC(=O)N[C@@H](CCC(=O)N[C@@H](CCC(=O)NCCCCCC(=O)N(CCOC1O[C@H](CO)[C@@H](O)[C@H](O)[C@@H]1O)CCO[C@H]1O[C@H](CO)[C@@H](O)[C@H](O)[C@@H]1O)C(=O)NCCCCCC(=O)N(CCOC1O[C@H](CO)[C@@H](O)[C@H](O)[C@@H]1O)CCOC1O[C@H](CO)[C@@H](O)[C@H](O)[C@@H]1O)C(=O)NCCCCCC(=O)NCCO[C@H]1O[C@H](CO[C@H]2O[C@H](CO)[C@@H](O)[C@H](O)[C@@H]2O)[C@@H](O)[C@H](O[C@H]2O[C@H](CO)[C@@H](O)[C@H](O)[C@@H]2O)[C@@H]1O (stereo partly shown) [IOC-27]
